From patent US20040029965A1, “Formulations for reducing or eliminating toxicity of enviromental hormones containing ursodeoxycholic acid” (priority 2000, published 2004)

Experiments:
Assay type in all cases: in vivo
C57B1/6J mice [1] = experiment: Organ weights (liver, kidneys, testes, epididymides) of mice after a single subcutaneous injection of TCDD
Protocol: Male C57B1/6J mice of 5 weeks old having the average weight of 18-22 g which had been bred in CRJ (Charles River in Japan) were purchased and used in this example as experimental animals. Those mice were acclimated under the constant breeding condition, i.e. the temperature of 24±1° C., the humidity of 60±10% and the light and darkness cycle of 12 hours, for one week and thereafter, utilized in the experiment.
(§1) 2,3,7,8-tetrachlorodibenzo-p-dioxin (TCDD) dissolved in toluene (purity of 95% or more as a result of gas chromatography analysis), manufactured by Chem. Services Inc. in USA, was volatilized with nitrogen to obtain powder. The obtained powder was dissolved in a mixed solvent containing acetone and corn oil with a volume ratio of 1:6. The resulting solution each containing 110, 27.5 and 6.9 μg/kg of TCDD was subcutaneously injected to mice at a volume of 5 ml per body weight. […] The mice were supplied with the feed from 10 days before (pre-administration) to 60 days after administration of TCDD (post-administration).
(§2) Upon completion of the experiment for 60 days, the experimental animals were fasted for 24 hours and anesthetized with ether. Then, they were abdominally incised and blood was gathered from abdominal vena cava. They were sacrificed by the release of blood. Liver, kidneys, testes and epididymides were extracted and all the extracted organs were weighed. Only the testes were separately kept and observed under optical and electron microscopes. For biochemical finding test, serum was separated from blood with a centrifuge and the separated serum was analyzed with an automated blood biochemical analyzer, Dimension (Dupont, USA). Blood was put to another blood gathering bottle and then, analyzed with an automated blood cell analyzer, Celldyn (Abbott, USA).
The results are expressed as Mean±Standard Deviation values. For statistical analysis of the body weight, feed and water uptake, biochemical findings, hematological findings and the weight of organ in an acute toxicity test, verification was performed by one way analysis of variance (ANOVA) in case of equal distribution. In case significance was recognized in ANOVA, the Student's t-test was performed in the levels of p<0.05 and p<0.01.
The organs, i.e. liver, kidneys, testes and epididymides, were weighed and the results are shown in the following.

C57B1/6J mice [2] = experiment: Johnsen's score of the testis tissue (level of spermatogenesis); conditions: score 10 to 1
Protocol: as §1, §2
The extracted testes were fixed in 10% neutralized formalin buffer for 24 hours and washed with the flowing water. It was subsequently dehydrated with ethanol and cleared with xylene and then, embedded with paraffin. It was sectioned with microtome (microm is HM 440E) to a thickness of 2-3 μm and then, double stained with hematoxylin and eosin to observe under an optical microscope.
For evaluation of the level of spermatogenesis, Johnsen's score was determined from 10 to 1 based on the presence or absence of principal cells arranged according to maturation of spermatogenesis. The basis of Johnsen's score in testes was the following:
10: Perfect spermatogenesis having many sperms, organization of embryonic epithelial cells with a constant thickness, and opened lumen
9: Despite many sperms, significant separation of embryonic epithelial cells from the basement membrane and disruption thereof, or loss of lumen
8: Presence of 5 to less than 10 sperms in the section
7: Many sperm cells without sperms
6: 5 to less than 10 sperm cells without sperms
5: Several or many spermatocytes without sperms and sperm cells
4: Less than 5 spermatocytes without sperms and sperm cells
3: Presence of only spermatogonia as reproductive cells
2: Presence of only Sertoli cells without any reproductive cells
1: No cells in the section of seminiferous tubules

C57B1/6J mice [3] = experiment: Electron microscopy of testes (cellular microstructures); conditions: TCDD 27.5 μg/kg alone; FIG. 9
Protocol: as §1
as §2, with “(Abbott, USA). […]” for “(Abbott, USA).”

## Clc1cc2c(cc1Cl)Oc1cc(Cl)c(Cl)cc1O2 [TCDD, 2,3,7,8-tetrachlorodibenzo-p-dioxin]
C57B1/6J mice [1]; TCDD 6.9 μg/kg alone
  Left epididymis Relative weight: 0.101 ± 0.012%
  Left epididymis Weight: 0.023 ± 0.005 g
  Left kidney Relative weight: 0.508 ± 0.050%
  Left kidney Weight: 0.115 ± 0.018 g
  Left testis Relative weight: 0.296 ± 0.030%
  Left testis Weight: 0.067 ± 0.011 g
  Liver Relative weight: 4.092%
  Liver Weight: 0.935 ± 0.173 g
  Right epididymis Relative weight: 0.110 ± 0.027%
  Right epididymis Weight: 0.025 ± 0.007 g
  Right kidney Relative weight: 0.513 ± 0.066%
  Right kidney Weight: 0.117 ± 0.022 g
  Right testis Relative weight: 0.285 ± 0.035%
  Right testis Weight: 0.65 ± 0.010 g
C57B1/6J mice [1]; TCDD 27.5 μg/kg alone
  Left epididymis Relative weight: 0.124 ± 0.024 %
  Left epididymis Weight: 0.021 ± 0.006 g
  Left kidney Relative weight: 0.625 ± 0.037 %
  Left kidney Weight: 0.101 ± 0.012 g
  Left testis Relative weight: 0.356 ± 0.051 %
  Left testis Weight: 0.058 ± 0.014 g
  Liver Relative weight: 4.506%
  Liver Weight: 0.734 ± 0.151 g
  Right epididymis Relative weight: 0.129 ± 0.027 %
  Right epididymis Weight: 0.021 ± 0.006 g
  Right kidney Relative weight: 0.571 ± 0.030 %
  Right kidney Weight: 0.092 ± 0.012 g
  Right testis Relative weight: 0.352 ± 0.059 %
  Right testis Weight: 0.058 ± 0.015 g
C57B1/6J mice [2]; TCDD 6.9 μg/kg alone
  Johnsen's score of the testis tissue: 8.06 ± 0.09
C57B1/6J mice [2]; TCDD 27.5 μg/kg alone
  Johnsen's score of the testis tissue: 7.42 ± 0.11
C57B1/6J mice [3]
  heads of sperms, electron microphotograph: Heads of sperms were frequently observed in cytoplasmic vacuoles of Sertoli cells
